Assay results published in the NIST ThermoML archive (doi:10.1021/je060271a).
± gives the expanded uncertainty stated by the source.

Conditions: 343.14 K, Liquid, Vibrating tube method

CCCC(=O)OCC(COC(=O)CCC)(COC(=O)CCC)COC(=O)CCC [pentaerythritol tetrabutyrate]
Conditions | mass density [kg/m3]
773.4 kPa | 1008.6 ± 1.2
794.9 kPa | 1008.7 ± 1.2
818 kPa | 1008.6 ± 1.2
837.8 kPa | 1008.5 ± 1.2
863.2 kPa | 1008.6 ± 1.2
890.1 kPa | 1008.8 ± 1.2
913.7 kPa | 1008.7 ± 1.2
943.4 kPa | 1008.7 ± 1.2
969.3 kPa | 1008.9 ± 1.2
1002.1 kPa | 1008.8 ± 1.2
1036.5 kPa | 1008.8 ± 1.2
1072.5 kPa | 1008.9 ± 1.2
1104.2 kPa | 1008.8 ± 1.2
1144 kPa | 1008.9 ± 1.2
1187.1 kPa | 1008.9 ± 1.2
1225.3 kPa | 1009 ± 1.2
1274.2 kPa | 1009 ± 1.2
1324.7 kPa | 1009 ± 1.2
1369.5 kPa | 1009.1 ± 1.2
1428.4 kPa | 1009.2 ± 1.2
1489.8 kPa | 1009.2 ± 1.2
1539.7 kPa | 1009.3 ± 1.2
1615.7 kPa | 1009.3 ± 1.2
1656.6 kPa | 1009.4 ± 1.2
1676.8 kPa | 1009.3 ± 1.2
1697.6 kPa | 1009.4 ± 1.2
1715.3 kPa | 1009.4 ± 1.2
1736.3 kPa | 1009.5 ± 1.2
1758.3 kPa | 1009.4 ± 1.2
1780.4 kPa | 1009.4 ± 1.2
1799.6 kPa | 1009.4 ± 1.2
1823.1 kPa | 1009.5 ± 1.2
1842.9 kPa | 1009.5 ± 1.2
1866.6 kPa | 1009.7 ± 1.2
1891.8 kPa | 1009.5 ± 1.2
1912.6 kPa | 1009.6 ± 1.2
1937.9 kPa | 1009.6 ± 1.2
1964.7 kPa | 1009.5 ± 1.2
1987.2 kPa | 1009.6 ± 1.2
2014.1 kPa | 1009.7 ± 1.2
2042.2 kPa | 1009.7 ± 1.2
2065.8 kPa | 1009.6 ± 1.2
2094.8 kPa | 1009.6 ± 1.2
2125.5 kPa | 1009.8 ± 1.2
2150.1 kPa | 1009.9 ± 1.2
2180.8 kPa | 1009.8 ± 1.2
2213.3 kPa | 1009.7 ± 1.2
2247.3 kPa | 1009.8 ± 1.2
2275.2 kPa | 1009.8 ± 1.2
2308 kPa | 1009.8 ± 1.2
2336.8 kPa | 1009.9 ± 1.2
2371.5 kPa | 1009.8 ± 1.2
2407 kPa | 1009.9 ± 1.2
2443.3 kPa | 1009.9 ± 1.2
2474.7 kPa | 1010 ± 1.2
2513.3 kPa | 1010.1 ± 1.2
2553.2 kPa | 1010 ± 1.2
2587.6 kPa | 1010.1 ± 1.2
2629.4 kPa | 1010 ± 1.2
2672.7 kPa | 1009.9 ± 1.2
2711.2 kPa | 1010.3 ± 1.2
2794.1 kPa | 1010.3 ± 1.2
2887.4 kPa | 1010.4 ± 1.2
2936.4 kPa | 1010.4 ± 1.2
2979.8 kPa | 1010.4 ± 1.2
3032.3 kPa | 1010.4 ± 1.2
3076.5 kPa | 1010.5 ± 1.2
3130.6 kPa | 1010.4 ± 1.2
3186.2 kPa | 1010.6 ± 1.2
3242.9 kPa | 1010.6 ± 1.2
3291.4 kPa | 1010.7 ± 1.2
3352.4 kPa | 1010.6 ± 1.2
3413.6 kPa | 1010.6 ± 1.2
3465.5 kPa | 1010.7 ± 1.2
3526.7 kPa | 1010.8 ± 1.2
3578 kPa | 1010.8 ± 1.2
3651.6 kPa | 1011 ± 1.2
3705.3 kPa | 1011 ± 1.2
3789.3 kPa | 1010.9 ± 1.2
3822.9 kPa | 1011.1 ± 1.2
3911.1 kPa | 1011.1 ± 1.2
3990.2 kPa | 1011.2 ± 1.2
4072.1 kPa | 1011.2 ± 1.2
4144 kPa | 1011.3 ± 1.2
4183.8 kPa | 1011.4 ± 1.2
4214.1 kPa | 1011.4 ± 1.2
4417.6 kPa | 1011.4 ± 1.2
4449.7 kPa | 1011.6 ± 1.2
4486.8 kPa | 1011.6 ± 1.2
4507.9 kPa | 1011.5 ± 1.2
4727.5 kPa | 1011.7 ± 1.2
5057.9 kPa | 1012.1 ± 1.2
5072.9 kPa | 1012.3 ± 1.2
5076 kPa | 1012 ± 1.2
5110.6 kPa | 1012.1 ± 1.2
5117 kPa | 1012.1 ± 1.2
5126.9 kPa | 1012.1 ± 1.2
5150.9 kPa | 1012.2 ± 1.2
5159.4 kPa | 1012.3 ± 1.2
5175.5 kPa | 1012.1 ± 1.2
5176 kPa | 1012.2 ± 1.2
5178.4 kPa | 1012.2 ± 1.2
5180.5 kPa | 1012.1 ± 1.2
5180.7 kPa | 1012 ± 1.2
5182.4 kPa | 1012.2 ± 1.2
5183.8 kPa | 1012.3 ± 1.2
5184.3 kPa | 1012.1 ± 1.2
5185 kPa | 1012.1 ± 1.2
5185.2 kPa | 1012.1 ± 1.2
5185.5 kPa | 1012.2 ± 1.2
5186.2 kPa | 1012.2 ± 1.2
5187.3 kPa | 1012.1 ± 1.2
5188.5 kPa | 1012.1 ± 1.2
5189 kPa | 1012.2 ± 1.2
5189.9 kPa | 1012.3 ± 1.2
5190.4 kPa | 1012.1 ± 1.2
5205.3 kPa | 1012.2 ± 1.2
5219.3 kPa | 1012.2 ± 1.2
5228.9 kPa | 1012.3 ± 1.2
5236 kPa | 1012.2 ± 1.2
5238.3 kPa | 1012.3 ± 1.2
5248 kPa | 1012.2 ± 1.2
5250.1 kPa | 1012.2 ± 1.2
5252.5 kPa | 1012.2 ± 1.2
5253.9 kPa | 1012.3 ± 1.2
5256.1 kPa | 1012.2 ± 1.2
5266.1 kPa | 1012.1 ± 1.2
5282.2 kPa | 1012.2 ± 1.2
5294.5 kPa | 1012.3 ± 1.2
5310.3 kPa | 1012.2 ± 1.2
5338.3 kPa | 1012.2 ± 1.2
5338.4 kPa | 1012.1 ± 1.2
5368.9 kPa | 1012.1 ± 1.2
5399.8 kPa | 1012.4 ± 1.2
5401.2 kPa | 1012.4 ± 1.2
5439.1 kPa | 1012.3 ± 1.2
5471.1 kPa | 1012.4 ± 1.2
5509.5 kPa | 1012.4 ± 1.2
5540.4 kPa | 1012.4 ± 1.2
5575.9 kPa | 1012.5 ± 1.2
5603.9 kPa | 1012.4 ± 1.2
5635.2 kPa | 1012.6 ± 1.2
5666.5 kPa | 1012.5 ± 1.2
5693.6 kPa | 1012.5 ± 1.2
5727 kPa | 1012.6 ± 1.2
5754.8 kPa | 1012.6 ± 1.2
